Assay: xn = mol fraction of the nth substance listed
Conditions: 101.33 kPa, Liquid; for viscosity: Capillary tube (Ostwald / Ubbelohde) method

CCOC(=O)OCC [diethyl carbonate] + CC1CCCCC1
Conditions	speed of sound, 293.15 K [m/s]	speed of sound, 298.15 K [m/s]	speed of sound, 303.15 K [m/s]	speed of sound, 308.15 K [m/s]	speed of sound, 313.15 K [m/s]	viscosity, 293.15 K [mPa·s]	viscosity, 298.15 K [mPa·s]	viscosity, 303.15 K [mPa·s]	viscosity, 308.15 K [mPa·s]	viscosity, 313.15 K [mPa·s]
x1 = 0.0473	1229	1207	1185	1164	1142	0.709	0.662	0.621	0.583	0.548
x1 = 0.0978	1222	1201	1179	1157	1136	0.692	0.647	0.607	0.57	0.537
x1 = 0.1985	1211	1189	1168	1146	1125	0.678	0.633	0.593	0.558	0.525
x1 = 0.2968	1203	1181	1160	1138	1117	0.67	0.627	0.588	0.553	0.521
x1 = 0.3924	1196	1175	1154	1132	1111	0.672	0.628	0.589	0.554	0.522
x1 = 0.4993	1192	1171	1149	1128	1107	0.68	0.635	0.596	0.561	0.529
x1 = 0.5999	1189	1168	1147	1126	1105	0.695	0.649	0.609	0.572	0.539
x1 = 0.6985	1189	1168	1147	1126	1106	0.709	0.663	0.622	0.584	0.55
x1 = 0.7988	1191	1170	1149	1128	1108	0.732	0.684	0.642	0.603	0.568
x1 = 0.8996	1194	1173	1152	1132	1112	0.762	0.711	0.666	0.625	0.588
x1 = 0.9509	1196	1175	1155	1134	1114	0.787	0.735	0.687	0.645	0.607
x1 = 1	1198	1177	1157	1136	1116	0.809	0.75	0.702	0.658	0.618

C1CCCC1 [cyclopentane] + CCOC(=O)OCC
Conditions	mass density [kg/m3]	speed of sound [m/s]	viscosity [mPa·s]
293.15 K, x2 = 0	744.43	1232	0.438
293.15 K, x2 = 0.0491	757.21	1219	0.44
293.15 K, x2 = 0.0999	770.43	1209	0.445
293.15 K, x2 = 0.1898	793.45	1196	0.462
293.15 K, x2 = 0.2872	817.88	1186	0.486
293.15 K, x2 = 0.3894	842.77	1180	0.518
293.15 K, x2 = 0.5009	868.92	1178	0.559
293.15 K, x2 = 0.6023	891.92	1179	0.601
293.15 K, x2 = 0.7021	913.9	1181	0.646
293.15 K, x2 = 0.8053	935.69	1186	0.696
293.15 K, x2 = 0.9032	955.62	1191	0.748
293.15 K, x2 = 0.952	965.36	1194	0.778
298.15 K, x2 = 0	739.47	1206	0.415
298.15 K, x2 = 0.0491	752.18	1194	0.416
298.15 K, x2 = 0.0999	765.34	1184	0.421
298.15 K, x2 = 0.1898	788.24	1172	0.437
298.15 K, x2 = 0.2872	812.58	1163	0.459
298.15 K, x2 = 0.3894	837.37	1157	0.489
298.15 K, x2 = 0.5009	863.47	1156	0.527
298.15 K, x2 = 0.6023	886.43	1157	0.564
298.15 K, x2 = 0.7021	908.38	1160	0.606
298.15 K, x2 = 0.8053	930.14	1165	0.654
298.15 K, x2 = 0.9032	950.04	1170	0.699
298.15 K, x2 = 0.952	959.78	1174	0.726
303.15 K, x2 = 0	734.47	1180	0.394
303.15 K, x2 = 0.0491	747.11	1169	0.396
303.15 K, x2 = 0.0999	760.19	1159	0.399
303.15 K, x2 = 0.1898	782.99	1147	0.414
303.15 K, x2 = 0.2872	807.23	1139	0.435
303.15 K, x2 = 0.3894	831.95	1134	0.461
303.15 K, x2 = 0.5009	857.97	1133	0.496
303.15 K, x2 = 0.6023	880.91	1135	0.532
303.15 K, x2 = 0.7021	902.82	1138	0.57
303.15 K, x2 = 0.8053	924.56	1144	0.615
303.15 K, x2 = 0.9032	944.44	1150	0.655
303.15 K, x2 = 0.952	954.16	1153	0.68
308.15 K, x2 = 0	729.42	1154	0.374
308.15 K, x2 = 0.0491	741.99	1144	0.375
308.15 K, x2 = 0.0999	755	1134	0.379
308.15 K, x2 = 0.1898	777.7	1123	0.393
308.15 K, x2 = 0.2872	801.84	1115	0.412
308.15 K, x2 = 0.3894	826.49	1112	0.436
308.15 K, x2 = 0.5009	852.45	1111	0.47
308.15 K, x2 = 0.6023	875.35	1113	0.502
308.15 K, x2 = 0.7021	897.23	1117	0.537
308.15 K, x2 = 0.8053	918.94	1123	0.578
308.15 K, x2 = 0.9032	938.8	1129	0.616
308.15 K, x2 = 0.952	948.52	1133	0.638
313.15 K, x2 = 0	724.32	1129	0.355
313.15 K, x2 = 0.0491	736.82	1119	0.356
313.15 K, x2 = 0.0999	749.76	1110	0.36
313.15 K, x2 = 0.1898	772.35	1099	0.373
313.15 K, x2 = 0.2872	796.39	1092	0.391
313.15 K, x2 = 0.3894	820.95	1089	0.414
313.15 K, x2 = 0.5009	846.9	1089	0.444
313.15 K, x2 = 0.6023	869.75	1091	0.475
313.15 K, x2 = 0.7021	891.61	1096	0.508
313.15 K, x2 = 0.8053	913.29	1102	0.545
313.15 K, x2 = 0.9032	933.14	1109	0.58
313.15 K, x2 = 0.952	942.85	1112	0.6

C1CCCC1 [cyclopentane] + COC(=O)OC
Conditions	mass density [kg/m3]	speed of sound [m/s]	viscosity [mPa·s]
293.15 K, x2 = 0	744.43	1232	0.438
293.15 K, x2 = 0.0453	755.75	1219	0.429
293.15 K, x2 = 0.0871	766.47	1209	0.419
293.15 K, x2 = 0.1847	792.72	1192	0.417
293.15 K, x2 = 0.2915	823.38	1180	0.421
293.15 K, x2 = 0.3937	854.33	1174	0.432
293.15 K, x2 = 0.4904	884.96	1172	0.449
293.15 K, x2 = 0.5988	920.84	1174	0.472
293.15 K, x2 = 0.6963	954.64	1180	0.497
293.15 K, x2 = 0.8033	993.39	1190	0.531
293.15 K, x2 = 0.9028	1031.4	1204	0.573
293.15 K, x2 = 0.9532	1051.09	1212	0.601
298.15 K, x2 = 0	739.47	1206	0.415
298.15 K, x2 = 0.0453	750.69	1193	0.406
298.15 K, x2 = 0.0871	761.31	1184	0.397
298.15 K, x2 = 0.1847	787.29	1168	0.396
298.15 K, x2 = 0.2915	817.76	1156	0.398
298.15 K, x2 = 0.3937	848.47	1150	0.408
298.15 K, x2 = 0.4904	878.98	1148	0.422
298.15 K, x2 = 0.5988	914.7	1151	0.444
298.15 K, x2 = 0.6963	948.41	1157	0.468
298.15 K, x2 = 0.8033	987.01	1168	0.5
298.15 K, x2 = 0.9028	1024.85	1182	0.538
298.15 K, x2 = 0.9532	1044.57	1190	0.565
303.15 K, x2 = 0	734.47	1180	0.394
303.15 K, x2 = 0.0453	745.58	1168	0.385
303.15 K, x2 = 0.0871	756.09	1158	0.377
303.15 K, x2 = 0.1847	781.98	1143	0.374
303.15 K, x2 = 0.2915	812.07	1131	0.377
303.15 K, x2 = 0.3937	842.65	1125	0.386
303.15 K, x2 = 0.4904	872.96	1124	0.4
303.15 K, x2 = 0.5988	908.54	1127	0.419
303.15 K, x2 = 0.6963	942.13	1134	0.441
303.15 K, x2 = 0.8033	980.64	1145	0.472
303.15 K, x2 = 0.9028	1018.17	1160	0.507
303.15 K, x2 = 0.9532	1038.01	1168	0.528
308.15 K, x2 = 0	729.42	1154	0.374
308.15 K, x2 = 0.0453	740.41	1142	0.366
308.15 K, x2 = 0.0871	750.83	1133	0.358
308.15 K, x2 = 0.1847	776.38	1118	0.355
308.15 K, x2 = 0.2915	806.36	1107	0.357
308.15 K, x2 = 0.3937	836.73	1102	0.366
308.15 K, x2 = 0.4904	866.91	1101	0.379
308.15 K, x2 = 0.5988	902.34	1105	0.397
308.15 K, x2 = 0.6963	935.82	1111	0.418
308.15 K, x2 = 0.8033	974.2	1123	0.446
308.15 K, x2 = 0.9028	1011.88	1138	0.478
308.15 K, x2 = 0.9532	1031.41	1146	0.501
313.15 K, x2 = 0	724.32	1129	0.355
313.15 K, x2 = 0.0453	735.2	1117	0.348
313.15 K, x2 = 0.0871	745.51	1108	0.341
313.15 K, x2 = 0.1847	770.82	1093	0.338
313.15 K, x2 = 0.2915	800.54	1083	0.338
313.15 K, x2 = 0.3937	830.73	1078	0.346
313.15 K, x2 = 0.4904	860.7	1078	0.358
313.15 K, x2 = 0.5988	896.1	1082	0.377
313.15 K, x2 = 0.6963	929.45	1089	0.397
313.15 K, x2 = 0.8033	967.7	1101	0.424
313.15 K, x2 = 0.9028	1005.28	1116	0.454
313.15 K, x2 = 0.9532	1024.79	1125	0.472
